Test results from ChEMBL document CHEMBL4715817, “Python Cathelicidin CATHPb1 Protects against Multidrug-Resistant Staphylococcal Infections by Antimicrobial-Immunomodulatory Duality” (J Med Chem, 2018).
The source made the active and inactive calls. Peptide text beside a SMILES is read from it.

Columns and labels:
[1] = system: Staphylococcus aureus; experiment: Antimicrobial activity against methicillin resistant Staphylococcus aureus IS 08032712, incubated for 16 to 18 hrs by fluorescence microplate reader analysis; assay type: functional; conditions: time 16-18 hrs
[2] = system: Enterococcus faecalis; experiment: Antimicrobial activity against Enterococcus faecalis IS 981 incubated for 16 to 18 hrs by fluorescence microplate reader analysis; assay type: functional; conditions: time 16-18 hrs
[3] = system: Pseudomonas aeruginosa; experiment: Antimicrobial activity against Pseudomonas aeruginosa ATCC 27853 incubated for 16 to 18 hrs by fluorescence microplate reader analysis; assay type: functional; conditions: time 16-18 hrs
[4] = system: Pseudomonas aeruginosa; experiment: Antimicrobial activity against Pseudomonas aeruginosa IS 08031014 incubated for 16 to 18 hrs by fluorescence microplate reader analysis; assay type: functional; conditions: time 16-18 hrs
[5] = system: Candida albicans; experiment: Antimicrobial activity against Candida albicans IS 08022821 incubated for 16 to 18 hrs by fluorescence microplate reader analysis; assay type: functional; conditions: time 16-18 hrs
[6] = system: Candida albicans; experiment: Antimicrobial activity against Candida albicans IS 08030102 incubated for 16 to 18 hrs by fluorescence microplate reader analysis; assay type: functional; conditions: time 16-18 hrs
[7] = system: Nakaseomyces glabratus; experiment: Antimicrobial activity against Candida glabrata IS 09050201 incubated for 16 to 18 hrs by fluorescence microplate reader analysis; assay type: functional; conditions: time 16-18 hrs
[8] = system: Macrophage; experiment: Immunomodulatory activity in mouse peritoneal macrophage assessed as inhibition of LPS-induced TNF-alpha level measured after 24 hrs by ELISA; assay type: functional, tissue-based; conditions: dose 5-20 µg/ml
[9] = system: Macrophage; experiment: Immunomodulatory activity in mouse peritoneal macrophage assessed as inhibition of LPS-induced IL-6 level measured after 24 hrs by ELISA; assay type: functional; conditions: dose 5-20 µg/ml
[10] = system: Macrophage; experiment: Immunomodulatory activity in mouse peritoneal macrophage assessed as inhibition of LPS-induced MCP-1 level measured after 24 hrs by ELISA; assay type: functional, tissue-based; conditions: dose 5-20 µg/ml
[11] = system: Staphylococcus aureus; experiment: In vivo antibacterial activity against vancomycin resistant Staphylococcus aureus infected in kunming mouse assessed as reduction in bacterial load in peritoneum at 10 mg/kg, ip measured 18 hrs after infection; assay type: functional, organism-based
[12] = system: Staphylococcus aureus; experiment: In vivo antibacterial activity against vancomycin resistant Staphylococcus aureus infected in kunming mouse assessed as reduction in bacterial load in peritoneum at 10 mg/kg, iv measured 18 hrs after infection; assay type: functional, organism-based
[13] = system: Staphylococcus aureus; experiment: In vivo antibacterial activity against vancomycin resistant Staphylococcus aureus infected in kunming mouse assessed as reduction in bacterial load in peritoneum at 10 mg/kg, sc measured 18 hrs after infection; assay type: functional, organism-based
[14] = system: Staphylococcus aureus; experiment: In vivo antibacterial activity against vancomycin resistant Staphylococcus aureus infected in kunming mouse assessed as reduction in bacterial load in peritoneal lavage at 10 mg/kg, ip administered 4 hrs after infection; assay type: functional, organism-based
[15] = system: Staphylococcus aureus; experiment: In vivo antibacterial activity against methicillin resistant Staphylococcus aureus IS 08032712 infected in kunming mouse assessed as increase in survival rate at 10 mg/kg, ip administered 4 hrs after infection and measured up to 7 days after infection; assay type: functional, organism-based; conditions: time day <=7
[16] = system: Staphylococcus aureus; experiment: In vivo antibacterial activity against vancomycin resistant Staphylococcus aureus infected in macrophage/monocyte deficient kunming mouse assessed as bacterial load in peritoneal lavage at 10 mg/kg, ip administered 24 hrs before infection; assay type: functional, organism-based
[17] = system: Staphylococcus aureus; experiment: In vivo antibacterial activity against vancomycin resistant Staphylococcus aureus infected in neutropenic kunming mouse model assessed as survival rate at 10 mg/kg, ip administered 24 hrs before infection; assay type: functional, organism-based
[18] = system: Pseudomonas aeruginosa; experiment: Antibiofilm activity against Pseudomonas aeruginosa assessed as biofilm eradication at BIC-5 by XTT and crystal violet staining assay relative to control; assay type: functional
[19] = system: Neutrophil; experiment: Immunomodulatory activity in neutrophils (unknown origin) assessed as inhibition of LPS-induced TNF-alpha level at 5 to 20 ug/ml by ELISA; assay type: functional, cell-based; conditions: dose 5-20 µg/ml
[20] = system: Neutrophil; experiment: Immunomodulatory activity in neutrophils (unknown origin) assessed as inhibition of LPS-induced IL-6 level at 5 to 20 ug/ml by ELISA; assay type: functional, cell-based; conditions: dose 5-20 µg/ml
[21] = system: Neutrophil; experiment: Immunomodulatory activity in neutrophils (unknown origin) assessed as effect on IL-6 level at 20 ug/ml measured after 12 hrs by ELISA; assay type: functional, cell-based; conditions: dose 20.0 µg/ml
[22] = system: Mus musculus; experiment: Immunomodulatory activity in Kunming mouse infected with vancomycin-resistant Staphylococcus aureus assessed as decreased in TNF-alpha level in peritoneal lavage at 10 mg/kg, ip administered 24 hrs before infection by ELISA; assay type: functional, organism-based
[23] = system: Mus musculus; experiment: Immunomodulatory activity in Kunming mouse infected with vancomycin-resistant Staphylococcus aureus assessed as decreased in IL-1beta level in peritoneal lavage at 10 mg/kg, ip administered 24 hrs before infection by ELISA; assay type: functional, organism-based
[24] = system: Mus musculus; experiment: Immunomodulatory activity in Kunming mouse infected with vancomycin-resistant Staphylococcus aureus assessed as increased in IL-10 level in peritoneal lavage at 10 mg/kg, ip administered 24 hrs before infection by ELISA; assay type: functional, organism-based
[25] = system: Mus musculus; experiment: Immunomodulatory activity in Kunming mouse infected with vancomycin-resistant Staphylococcus aureus assessed as increased in CXCL1/KC level in peritoneal lavage at 10 mg/kg, ip administered 24 hrs before infection by ELISA; assay type: functional, organism-based
[26] = system: Mus musculus; experiment: Immunomodulatory activity in Kunming mouse infected with vancomycin-resistant Staphylococcus aureus assessed as decreased in IL-6 level in peritoneal lavage at 10 mg/kg, ip administered 4 hrs after infection by ELISA; assay type: functional, organism-based
[27] = system: Mus musculus; experiment: Immunomodulatory activity in Kunming mouse infected with vancomycin-resistant Staphylococcus aureus assessed as decreased in IL-1beta level in peritoneal lavage at 10 mg/kg, ip administered 4 hrs after infection by ELISA; assay type: functional, organism-based
[28] = Toxicity in Kunming mouse assessed as effect on CXCL1/KC levels at 10 mg/kg, ip measured after 5 hrs by ELISA; assay type: organism-based; conditions: in vivo
[29] = system: Staphylococcus aureus; experiment: Antibacterial activity against FITC-labelled Staphylococcus aureus ATCC 25923 infected in neutrophil cells assessed as entrapment of bacteria by NET releasing neutrophil at 20 to 40 ug/ml by fluorescence analysis; assay type: functional, organism-based; conditions: dose 20-40 µg/ml
[30] = Cytotoxicity against mouse peritoneal macrophage assessed as cell death at 100 ug/ml by MTT assay; assay type: tissue-based
[31] = system: L02; experiment: Cytotoxicity against human HL7702 cells assessed as cell death at 100 ug/ml by MTT assay; assay type: cell-based
[32] = system: Macrophage; experiment: Induction of ROS production in mouse peritoneal macrophage by fluorescence assay; assay type: functional, tissue-based; conditions: dose 10-40 µg/ml
[33] = system: Neutrophil; experiment: Induction of ROS production in neutrophil (unknown origin) by fluorescence assay; assay type: functional, cell-based; conditions: dose 10-40 µg/ml
[34] = system: Staphylococcus aureus; experiment: Antibacterial activity against vancomycin-resistant Staphylococcus aureus assessed as neutrophil-induced bacterial cell killing neutrophils pretreated with compound measured after 15 to 60 mins; assay type: functional, organism-based; conditions: dose 10-40 µg/ml, time 15-60 min
[35] = Induction of neutrophil extracellular trap formation in neutrophil (unknown origin) at 10 ug/ml measured after 3 hrs by fluorescence analysis; assay type: functional; conditions: dose 10 µg/ml
[36] = system: Macrophage; experiment: Inhibition of LPS-induced phosphorylation of p38 in mouse peritoneal macrophage at 20 ug/ml pretreated for 1 hr followed by LPS stimulation measured after 30 mins by Western blot analysis relative to control; assay type: tissue-based; conditions: dose 20.0 µg/ml, time 1.5 hrs
[37] = system: Staphylococcus aureus; experiment: Antibacterial activity against vancomycin-resistant Staphylococcus aureus assessed as bacterial growth inhibition in aqueous solution incubated upto 96 hrs; assay type: functional; conditions: time hrs <=96
[38] = system: Staphylococcus aureus; experiment: Antibacterial activity against vancomycin-resistant Staphylococcus aureus assessed as bacterial growth inhibition in presence of 80% human serum incubated upto 8 hrs; assay type: functional; conditions: time hrs <=8
[39] = system: Staphylococcus aureus; experiment: Antibacterial activity against vancomycin-resistant Staphylococcus aureus assessed as bactericidal activity incubated at 0 to 90 degree C for 1 hr; assay type: functional, organism-based

CC[C@H](C)[C@H](NC(=O)[C@@H]1CCCN1C(=O)[C@@H](NC(=O)[C@@H](NC(=O)CNC(=O)CNC(=O)[C@@H](NC(=O)[C@H](Cc1ccccc1)NC(=O)[C@@H](NC(=O)[C@H](CCCCN)NC(=O)[C@@H](NC(=O)[C@H](CCCCN)NC(=O)[C@H](CCCCN)NC(=O)[C@H](Cc1ccccc1)NC(=O)[C@@H](NC(=O)[C@H](CCCCN)NC(=O)[C@H](CCCNC(=N)N)NC(=O)[C@H](Cc1ccccc1)NC(=O)CNC(=O)[C@H](CCCCN)NC(=O)[C@H](CCCCN)NC(=O)[C@@H](NC(=O)[C@H](CCCCN)NC(=O)[C@H](CCCNC(=N)N)NC(=O)[C@H](Cc1ccccc1)NC(=O)[C@H](Cc1ccccc1)NC(=O)[C@H](CCCCN)NC(=O)[C@H](CCCCN)NC(=O)[C@H](Cc1ccccc1)NC(=O)[C@H](CCCNC(=N)N)NC(=O)[C@@H](N)CCCCN)[C@@H](C)CC)[C@@H](C)CC)[C@@H](C)O)[C@@H](C)CC)[C@@H](C)CC)[C@@H](C)O)[C@@H](C)CC)C(=O)O (H-KRFKKFFRKIKKGFRKIFKKTKIFIGGTIPI-OH)
1.17 µg/mL: MIC [1] | MIC [2] | MIC [3] | MIC [4] | MIC [5] | MIC [6] | MIC [7]
15.65%: Activity [35]
92%: inhibition [36]
4.46%: Activity [31]
Non-Toxic: Activity [28]
25 µg/mL: MIC [38]
inactive: Activity [16] | Activity [17] | Activity [21]
active: inhibition [8] Dose-dependent effect | inhibition [9] Dose-dependent effect | inhibition [10] Dose-dependent effect | Activity [11] | Activity [12] | Activity [13] | Activity [14] | Activity [15] | inhibition [19] | inhibition [20] | Activity [22] | Activity [23] | Activity [24] | Activity [25] | Activity [26] | Activity [27] | Activity [29] | Activity [32] Dose-dependent effect | Activity [33] Dose-dependent effect | Activity [34] Dose-dependent effect | Activity [39]
62.23%: Activity [18]
6.46%: Activity [30]
4.96 µg/mL: MIC [37]
